Experimental data taken from publication PMC9218685, “Legume Plant Peptides as Sources of Novel Antimicrobial Molecules Against Human Pathogens” (Frontiers in Molecular Biosciences, 2022).
In brackets after ≈: the same amount, converted by molar mass. Entries after “also recorded” stand apart in the source; their conditions may differ. Peptide text beside a SMILES is read from it.

Assays:
[1] = test system: Acinetobacter baumannii (ATCC 17978); assay: microbe, parasite or virus in culture; format: cell-based; details: for MBC: ~10^7 log phase bacteria, Potassium-Phosphate Buffer pH 7.4, 3 h treatment, two-fold dilution series, lowest concentration completely eliminating viable bacteria, read-out: MBC, minimal bactericidal concentration against A. baumannii
Method in brief: (§1)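 MBC read as lowest peptide concentration giving no viable bacteria; ~10^7 log-phase cells, PPB pH 7.4, 3 h treatment, 2-fold dilutions from 25 µM.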

[2] = test system: E. coli, S. enteritidis, P. aeruginosa, L. monocytogenes, S. aureus, E. faecalis, K. pneumoniae and A. baumannii; assay: Antimicrobial activity assay, spectrum over the eight tested pathogenic bacteria; format: cell-based; details: 3 h treatment of ~10^7 log phase bacteria, peptides 25 to 0.8 µM; active = MBC ≤25 µM
Method in brief: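 MBC taken as the lowest peptide concentration leaving no viable bacteria after 3 h exposure of ~10^7 log-phase cells. Peptides tested by 2-fold serial dilution, 25 µM down to 0.8 µM, in PPB (pH 7.4). Gram-positive and Gram-negative reference strains from ATCC, NCTC and HNCMO collections.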

A. baumannii = assay: Scanning electron microscopy of cell morphology; format: cell-based, Acinetobacter baumannii; details: 30 min treatment, peptide 1.6 or 3.125 µM as in Figure 3 legend
Protocol: (§2) A. baumannii and C. albicans were grown and treated the same way as for the membrane permeability assay. Cells were then fixed with 2.5% (v/v) glutaraldehyde in phosphate buffered saline (PBS, pH 7.4). 5 μl of the above bacterial and yeast suspensions were spotted on a silicon disk coated with 0.01% Poly-L-Lysine. The filters were washed twice with PBS and gradually dehydrated with ethanol series (30, 50, 70, 80%, and three times 100% ethanol, each for minimum 30 min). The samples were dried with a critical point dryer (K850: Quorum Technologies Ltd.), followed by 12 nm gold coating and observed under a JEOL JSM-7100F/LV scanning electron microscope.
FIGURE 3 Viability, membrane permeability and morphology of A. baumannii cells after NCR treatment (A–L) SYTO9/PI staining observed with confocal microscope, (M–X) Cell morphology observed with SEM. (A,M) untreated control, (B,N) CaNCR13, 3.125 µM, (C,O) CaNCR63, 3.125 µM, (D,P) CaNCR63_1-20, 3.125 µM, (E,Q) CaNCR63_15-34, 3.125 µM, (F,R) MsNCR443, 3.125 µM, (G,S) MsNCR463_16-35, 1.6 µM, (H,T) MsNCR463_17-30, 3.125 µM, (I,U) PsNCR349, 1.6 µM, (J,V) PsNCR349_26-50, 3.125 µM, (K,W) PsNCR349_31-50, 3.125 µM, (L,X) PsNCR352, 1.6 µM.

C. albicans = assay: Scanning electron microscopy of cell morphology; format: cell-based, Candida albicans; details: 30 min treatment, peptide 1.6, 3.125 or 25 µM as in Figure 4 legend
Protocol: as §2

[3] = test system: Lambda DNA/HindIII marker; assay: Gel retardation assay (DNA aggregation); format: binding; details: 100 ng DNA, 5 or 10 µM peptide in water, 30 min at room temperature, 1% agarose gel
Protocol: Interactions of peptides with DNA was visualized with gel retardation assay ([Hsu et al., 2005]). 100 ng Lambda DNA/HindIII marker (ThermoFisher Scientific) was incubated with 0, 5 or 10 µM synthetic NCRs or NCR derivatives in water for 30 min at room temperature and then loaded into 1% agarose gel. Electrophoresis of DNA fragments separated the mobile HindIII-digested DNA fragments while the aggregated DNA remained in the loading wells.
FIGURE 6 Aggregation of DNA by NCR peptides. Lambda HindIII digested DNA was incubated without (0) or with NCR peptides at 5 or 10 μM concentration.

[4] = test system: Enterococcus faecalis (ATCC 29212); format: cell-based
Method in brief: as §1

[5] = test system: Escherichia coli (ATCC 8739); format: cell-based; details: ATCC 8739, 3 h
Method in brief: as §1

[6] = test system: Klebsiella pneumoniae (NCTC 13440); format: cell-based; details: NCTC 13440, 3 h
Method in brief: as §1

[7] = test system: Listeria monocytogenes (ATCC 19111); format: cell-based; details: ATCC 19111, 3 h
Method in brief: as §1

[8] = test system: Pseudomonas aeruginosa (ATCC 27853); format: cell-based; details: ATCC 27853, 3 h
Method in brief: as §1

[9] = test system: Salmonella enterica (ATCC 13076); format: cell-based; details: ATCC 13076, 3 h
Method in brief: as §1

[10] = test system: Staphylococcus aureus (HNCMO112011); format: cell-based; details: HNCMO112011, 3 h
Method in brief: as §1

Compound: CC[C@H](C)[C@H](NC(=O)[C@H](CCCCN)NC(=O)[C@H](CO)NC(=O)[C@H](CCCNC(=N)N)NC(=O)[C@@H]1CCCN1C(=O)[C@H](CS)NC(=O)[C@H](CCCNC(=N)N)NC(=O)[C@H](Cc1ccc(O)cc1)NC(=O)[C@H](CCCCN)NC(=O)[C@H](CCCCN)NC(=O)[C@H](CS)NC(=O)[C@H](CC(=O)O)NC(=O)[C@@H](NC(=O)[C@H](CCCNC(=N)N)NC(=O)[C@@H](NC(=O)[C@H](CCCCN)NC(=O)[C@H](CS)NC(=O)[C@@H](NC(=O)[C@H](CCSC)NC(=O)[C@@H](N)CCCCN)[C@@H](C)CC)[C@@H](C)O)C(C)C)C(=O)N[C@@H](CCCCN)C(=O)N[C@@H](CC(=O)O)C(=O)N[C@@H](CS)C(=O)N[C@H](C(=O)N[C@@H](CCCCN)C(=O)NCC(=O)N[C@@H](Cc1ccc(O)cc1)C(=O)N[C@@H](CS)C(=O)N[C@@H](CCCNC(=N)N)C(=O)N[C@@H](CS)C(=O)N[C@H](C(=O)N[C@@H](CCCNC(=N)N)C(=O)N[C@@H](CCCCN)C(=O)N[C@@H](CCCCN)C(=O)O)C(C)C)C(C)C [CaNCR63] (H-KMICKTRVDCKKYRCPRSKIKDCVKGYCRCVRKK-OH; N-terminus assumed)
- MBC [1]: 6.25 µM (≈ 25.8 µg/mL)
- Antibacterial spectrum over the eight tested bacterial strains [2]: broad-spectrum activity
- Morphology of A. baumannii cells by SEM (A. baumannii): rough cell surface, lysis and flattening of the cells
- Morphology of C. albicans cells by SEM (C. albicans): Flattening of cells; also recorded: aggregation of shrunken cells in a spider net like matrix
- Aggregation of HindIII-digested λ DNA (DNA retained in loading wells) [3]: DNA remained in the wells

Compound: CC[C@H](C)[C@H](NC(=O)[C@H](CCCNC(=N)N)NC(=O)[C@@H](NC(=O)[C@H](CS)NC(=O)[C@H](CCCCN)NC(=O)[C@H](CS)NC(=O)[C@H](Cc1ccccc1)NC(=O)CNC(=O)[C@H](CC(N)=O)NC(=O)[C@@H](NC(=O)[C@H](CS)NC(=O)[C@H](CCCCN)NC(=O)[C@@H]1CCCN1C(=O)[C@@H](NC(=O)[C@H](CCCCN)NC(=O)[C@@H]1CCCN1C(=O)[C@H](CCCCN)NC(=O)[C@H](CCCNC(=N)N)NC(=O)[C@H](CS)NC(=O)[C@H](C)NC(=O)[C@H](Cc1ccccc1)NC(=O)[C@H](CCCCN)NC(=O)[C@H](CCCCN)NC(=O)[C@H](CS)NC(=O)[C@H](CC(=O)O)NC(=O)[C@H](CCCCN)NC(=O)[C@H](CC(=O)O)NC(=O)[C@H](CO)NC(=O)[C@H](CCC(N)=O)NC(=O)[C@H](CS)NC(=O)[C@@H]1CCCN1C(=O)[C@@H](N)CCCCN)C(C)C)[C@@H](C)CC)C(C)C)C(=O)N[C@@H](Cc1c[nH]c2ccccc12)C(=O)O [CaNCR13] (H-KPCQSDKDCKKFACRKPKVPKCINGFCKCVRIW-OH; N-terminus assumed)
- Antibacterial spectrum over the eight tested bacterial strains [2]: broad-spectrum activity
- Morphology of A. baumannii cells by SEM (A. baumannii): Only dead cells were visible
- Morphology of C. albicans cells by SEM (C. albicans): aggregation of shrunken cells in a spider net like matrix
- Aggregation of HindIII-digested λ DNA (DNA retained in loading wells) [3]: did not

Compound: CC[C@H](C)[C@H](NC(=O)[C@H](CCCNC(=N)N)NC(=O)[C@H](CCCNC(=N)N)NC(=O)[C@H](CS)NC(=O)[C@H](CCCNC(=N)N)NC(=O)[C@H](CCCNC(=N)N)NC(=O)[C@H](CCC(=O)O)NC(=O)[C@@H](NC(=O)[C@H](CS)NC(=O)[C@H](CC(C)C)NC(=O)[C@@H](NC(=O)[C@H](CCCCN)NC(=O)[C@H](Cc1ccc(O)cc1)NC(=O)[C@@H](NC(=O)[C@H](CCCCN)NC(=O)[C@H](CO)NC(=O)[C@H](CS)NC(=O)[C@H](CCCNC(=N)N)NC(=O)[C@H](Cc1ccccc1)NC(=O)[C@H](CCCNC(=N)N)NC(=O)[C@H](CC(C)C)NC(=O)[C@H](CS)NC(=O)[C@H](CC(=O)O)NC(=O)[C@H](CO)NC(=O)[C@H](CC(=O)O)NC(=O)[C@H](CC(N)=O)NC(=O)[C@H](CC(C)C)NC(=O)[C@H](CS)NC(=O)[C@H](CCCNC(=N)N)NC(=O)[C@H](CC(C)C)NC(=O)CNC(=O)[C@H](CO)NC(=O)[C@@H]1CCCN1)[C@@H](C)CC)C(C)C)[C@@H](C)CC)C(=O)N[C@@H](CCCCN)C(=O)N[C@@H](CCSC)C(=O)N[C@@H](Cc1c[nH]cn1)C(=O)O [PsNCR352]
- MBC [1]: 6.25 µM (≈ 27.3 µg/mL)
- Antibacterial spectrum over the eight tested bacterial strains [2]: broad-spectrum activity
- Morphology of A. baumannii cells by SEM (A. baumannii): cell form was preserved
- Morphology of C. albicans cells by SEM (C. albicans): Flattening of cells; also recorded: aggregation of shrunken cells in a spider net like matrix
- Aggregation of HindIII-digested λ DNA (DNA retained in loading wells) [3]: did not

Compound: CC[C@H](C)[C@H](N)C(=O)N[C@@H](Cc1ccc(O)cc1)C(=O)N[C@@H](Cc1ccccc1)C(=O)N[C@@H](CCCNC(=N)N)C(=O)N[C@@H](CCCCN)C(=O)N1CCC[C@H]1C(=O)N1CCC[C@H]1C(=O)N1CCC[C@H]1C(=O)N[C@@H](CS)C(=O)N[C@H](C(=O)N[C@H](C(=O)N[C@@H](CC(=O)O)C(=O)N[C@@H](CCCCN)C(=O)N[C@@H](CC(=O)O)C(=O)N[C@@H](CS)C(=O)N1CCC[C@H]1C(=O)N[C@@H](CCC(N)=O)C(=O)N[C@@H](CCSC)C(=O)N[C@@H](CCCCN)C(=O)N[C@H](C(=O)N[C@@H](CC(N)=O)C(=O)N[C@@H](CC(N)=O)C(=O)N[C@H](C(=O)N[C@@H](CCCNC(=N)N)C(=O)N[C@@H](CS)C(=O)N[C@@H](CCCNC(=N)N)C(=O)N[C@@H](CCCCN)C(=O)NCC(=O)N[C@@H](Cc1ccccc1)C(=O)N[C@@H](CS)C(=O)N[C@H](C(=O)N[C@@H](CCC(N)=O)C(=O)N[C@H](C(=O)N[C@@H](Cc1c[nH]cn1)C(=O)N[C@@H](CCCCN)C(=O)N[C@@H](Cc1ccccc1)C(=O)N[C@H](C(=O)N1CCC[C@H]1C(=O)O)[C@@H](C)O)[C@@H](C)CC)[C@@H](C)CC)C(C)C)[C@@H](C)CC)[C@@H](C)O)[C@@H](C)CC [NCR358] (H-IYFRKPPPCITDKDCPQMKINNVRCRKGFCIQIHKFTP-OH; N-terminus assumed)
- MBC Acinetobacter baumannii ([1]; ATCC 17978, 3 h): 3.125 µM (≈ 14.2 µg/mL)
- Ability to kill E. faecalis ([4]; 3 h, ~10^7 log phase bacteria, peptides ≤25 µM): able to kill
- MBC Enterococcus faecalis ([4]; ATCC 29212, 3 h): 6.25 µM (≈ 28.4 µg/mL)
- MBC Escherichia coli [5]: 1.6 µM (≈ 7.26 µg/mL)
- MBC Klebsiella pneumoniae [6]: 25 µM (≈ 113 µg/mL)
- MBC Listeria monocytogenes [7]: 3.125 µM (≈ 14.2 µg/mL)
- MBC Pseudomonas aeruginosa [8]: 3.125 µM (≈ 14.2 µg/mL)
- MBC Salmonella enterica [9]: 3.125 µM (≈ 14.2 µg/mL)
- MBC Staphylococcus aureus [10]: 3.125 µM (≈ 14.2 µg/mL)
- Antibacterial spectrum over the eight tested bacterial strains [2]: capable of killing all tested bacteria; also recorded: active against all the eight tested pathogens
